# Measurements reported in patent US20250275993A1, “GLYCOSYLATION INHIBITORS AS THERAPEUTICS FOR STROKE” (The Regents of the University of California, priority 2022, published 2025).
# Entries after “also recorded” stand apart in the source; their conditions may differ.
# Tests used:
# [1] = test system: ERK, AKT, mTOR, CREB, ACC and eNOS; assay: Western blot of signal transduction pathways in BCECs; assay type: cell-based, bovine; conditions: 40 μM
# Procedure: Cells were allowed to reach-80% confluency in 12-well plates. […] At various time points, plates were taken out of the incubator and kept on ice. […] Lysates were collected and mixed with 4× Bolt LDS Sample Buffer (Novex, Carlsbad, CA) in the presence of Halt protease inhibitors and phosphatase inhibitor cocktail (ThermoFisher scientific, #NP0007). […] HUVECs (passage 6-8) were plated in EBM-2 basal medium (Lonza) with 0.2% FBS. Following overnight culture, cells were serum-starved in EBM-2 medium for 4 hrs prior to treatment with 50 ng/ml of VEGF165 or vehicle controls for various lengths. Equal amounts of protein lysates were analyzed by SDS-PAGE and blotted with the indicated antibodies. Proteins were transferred using Tris-Glycine buffer with 20% Methanol (Proteonomics grade) (Apex BioResearch Products). Membranes were first incubated with 5% milk in TBST, pH 7.6 (TEKnova, Hollister, CA), followed by blotting with primary and secondary antibodies. ECL anti-rabbit IgG, horseradish peroxidase linked whole antibody from donkey or sheep anti-mouse were obtained from GE Healthcare (UK limited). SuperSignal West Dura Extended Duration substrate was from ThermoFisher Scientific. In some cases, the same PVDF membranes were stripped by 8-min incubation in the Restore Plus Western Blot Stripping Buffer (ThermoFisher Scientific) to show total specific protein expression, followed by second stripping for (3-actin expression.
# [2] = test system: bovine choroidal microvascular endothelial cells (BCEC); assay: BCEC proliferation assay (AlamarBlue / crystal violet); assay type: cell-based; conditions: for stimulation of BCEC proliferation by other hexosamines and structurally related molecules: with or without VEGF, tested alongside ManN
# Procedure: The effect of ManN on EC proliferation was assessed.
# AlamarBlue detects mitochondria activity as an indication of cell viability which correlates with cell number at certain ranges.
# Proliferation assays with BCECs and BRECs were performed. Log-phase growing BCECs or BRECs (passage <10) were trypsinized, re-suspended and seeded in 96-well plates (no coating) in low-glucose DMEM supplemented with 10% bovine calf serum, 2 mM glutamine, and antibiotics (growth medium), at a density of 1200-1500 cells per well in 200 μl volume. All reagents were added at the indicated final concentrations. After 3-6 days, cells were incubated with AlamarBlue for 4 hrs. Fluorescence was measured at 530 nm excitation wavelength and 590 nm emission wavelength. The experiments were repeated at least three times. […] 20% methanol or 0.05% DMSO served as negative controls. […] Human RMVECs and human adult DMVECs were split into Gelatin-coated 96 wells (2000 cells per well) in low glucose DMEM containing 10% FBS. 1200 cells/well was set up for proliferation assay in low glucose media containing 0.5% FBS. Data was collected at day 4 or 5. HUVEC (p7-10) were grown on gelatin-coated plate until it reached 70-80% confluency.
# On the day of the assay, cells were dissociated with 0.05% trypsin, which was neutralized with 0.5% FBS-containing EBM. Cells were briefly spun and then re-suspended in 0.5% FBS-media. Cells were counted and plated in 96-well, 1000 cells/well. Triplicate wells were used for each treatment. Data were collected at day 3, and then cells were fixed in 4% paraformaldehyde for 15 min before adding crystal violet. Cell-covered areas were quantified after taking pictures by Image J software.
# retinal vasculature = assay: Retinal neovascularization after intravitreal injection; assay type: in vivo, mouse; conditions: 500 ng ManN or Kif, 200 ng bFGF intravitreally; after seven days
# Procedure: The effect of ManN and Kif on inducing retinal neovascularization was assessed. The findings in cultured eye-derived EC were extended to a suitable in vivo model system. The mouse retina has been used extensively over the past decades to study both physiological and pathological angiogenesis. To obtain a detailed description of the retinal vasculature, images from retinal flat mounts were processed for vascular area fraction (ratio of area covered by blood vessels to total retinal area). Using this model, the effects of ManN in retinal neovascularization were assessed. Kif was also tested in this model because it is a water-soluble inhibitor and its mechanism of glycosylation inhibition is well established. In addition, it shares with ManN the ability to activate ERK, AKT and stress pathways in BCEC (FIG. 7E).
# Assessment of retinal angiogenesis following intravitreal administration was done. Briefly, 6-8 weeks old C57BL/6 male mice were randomly allocated to different groups and anesthetized with ketamine/Xylazine cocktail. The indicated amounts of ManN, Kif or bFGF (R&D systems, AF-233-NA) in 1 μl of PBS and PBS vehicle control were injected intravitreally with a 33-gauge Hamilton syringe. Seven days after injection, animals were euthanized. Eyes were then enucleated and fixed in 4% paraformaldehyde (PFA) for 30 mins. Retinas were separated and stained with anti-CD31 immunofluorescence (IF) to evidence the vasculature. Evaluations were performed by an investigator blinded to the treatment. For CD31 IF, rat anti-mouse antibody (BD Biosciences, CAT #550274) was diluted 1:100 and incubated overnight at 4° C. After 4-hour incubation with the Alexa Fluor-488-conjugated anti-rat antibody (Life Technologies, A11006), whole mounts were imaged via the 488 nm channel using AIR Confocal STORM super-resolution system (Nikon). Quantification of vascular density in choroids and retina was carried out by Image J. Each experiment was repeated three times with similar results, and each treatment group consists of 5 individual samples.
# Bip, CHOP, ATF-6 = assay: Western blot of UPR responsive proteins in BCECs; assay type: cell-based, bovine; conditions: for restoration of ATF-6 expression: ManN at 400 μM
# [3] = test system: BCEC confluent monolayers; assay: BCEC scratch assay; assay type: cell-based, bovine; conditions: over 48 hours relative to control
# Procedure: BCECs (passage 6-10) and HUVEC (passage 6-8) were used in this assay. Cells were grown until about 80% confluency in 6-well plates, washed twice with PBS and then starved in serum-free DMEM (low Glucose, Hyclone) for 5 hrs before making a “scratch” using 1 ml tip. Cell monolayers were briefly washed once with serum-free media, followed by various treatments in media containing 1% FBS. 48 hrs later, the assay was stopped by adding 2 ml 4% paraformaldehyde. 20 min later, fixed cells were stained with 1 ml Crystal Violet (Sigma). Plates were washed gently under the running tap water and air-dried before taking pictures. Images were acquired by ZEISS Discovery […] microscopy equipped with […] camera. Quantification of wound closure was done using AxioVision LE Rel.4.4 software. Six images were taken for each sample and six measurements (in pixel) were made on each image using AxioVision LE Re1.4.4 software.
# JNK/c-jun = assay: Western blot of JNK pathway activation in BCECs; assay type: cell-based, bovine; conditions: 40 μM; BCECs; FIG. 7E
# Procedure: (§1) Cells were allowed to reach-80% confluency in 12-well plates. […] At various time points, plates were taken out of the incubator and kept on ice. Cell monolayers were first washed once with ice-cold PBS before lysis with 250 μI of Pierce RIPA buffer (ThermoFisher Scientific, Rockford, IL) or use 50 mM Tris-HCl (pH 7.6), 150 mM NaCl, 10% Glycerol, 1% NP-40 containing protease/Phosphatase inhibitor cocktail (100×) (Cell signaling, #5872). Lysates were collected and mixed with 4× Bolt LDS Sample Buffer (Novex, Carlsbad, CA) in the presence of Halt protease inhibitors and phosphatase inhibitor cocktail (ThermoFisher scientific, #NP0007). The samples were subjected to SDS-PAGE (Bolt 4-12% Bis-Tris Plus, Invitrogen) using Bolt MES SDS running buffer or NuPAGE 3-8% Tris-Acetate gel using Tris-Acetate SDS running buffer (Novex). HUVECs (passage 6-8) were plated in EBM-2 basal medium (Lonza) with 0.2% FBS. Following overnight culture, cells were serum-starved in EBM-2 medium for 4 hrs prior to treatment with 50 ng/ml of VEGF165 or vehicle controls for various lengths. Equal amounts of protein lysates were analyzed by SDS-PAGE and blotted with the indicated antibodies. Proteins were transferred using Tris-Glycine buffer with 20% Methanol (Proteonomics grade) (Apex BioResearch Products). Membranes were first incubated with 5% milk in TBST, pH 7.6 (TEKnova, Hollister, CA), followed by blotting with primary and secondary antibodies. ECL anti-rabbit IgG, horseradish peroxidase linked whole antibody from donkey or sheep anti-mouse were obtained from GE Healthcare (UK limited). SuperSignal West Dura Extended Duration substrate was from ThermoFisher Scientific. In some cases, the same PVDF membranes were stripped by 8-min incubation in the Restore Plus Western Blot Stripping Buffer (ThermoFisher Scientific) to show total specific protein expression, followed by second stripping for (3-actin expression.
# ERK and AKT = assay: Western blot of ERK and AKT activation in HUVEC and hDMVECs; assay type: cell-based, human; conditions: 40 μM
# Procedure: as §1, with “Membranes were first incubated with 5% milk in TBST, pH 7.6 (TEKnova, Hollister, CA), followed by blotting with primary and secondary antibodies. ECL anti-rabbit IgG, horseradish peroxidase linked whole antibody from donkey or sheep anti-mouse were obtained from GE Healthcare (UK limited). SuperSignal West Dura Extended Duration substrate was from ThermoFisher Scientific. In some cases, the same PVDF membranes were stripped by 8-min incubation in the Restore Plus Western Blot Stripping Buffer (ThermoFisher Scientific) to show total specific protein expression, followed by second stripping for (3-actin expression.” left out
compound,measurement,setting,value
"CC(=O)N[C@@H]1C(O)O[C@H](CO)[C@@H](O)[C@@H]1O (stereo partly drawn) [ManNAc, N-Acetyl-D-Mannosamine, reference compound]","activation of ERK, AKT, mTOR, CREB, ACC and eNOS by other sugars","[1]; BCECs, FIG. 2C",induced a similar activation
"CNC[C@H](O)[C@@H](O)[C@H](O)[C@H](O)CO [meglumine, Meglumine]",stimulation of BCEC proliferation by other hexosamines and structurally related molecules,[2],None of these molecules stimulated BCEC proliferation
"Cl.NCC(=O)[C@@H](O)[C@H](O)[C@H](O)CO [D-isoglucosamine, 1-Amino-1-deoxy-D-Fructose hydrochloride]",stimulation of BCEC proliferation by other hexosamines and structurally related molecules,[2],None of these molecules stimulated BCEC proliferation
"C[C@@H](O[C@H]1[C@H](O)[C@@H](CO)OC(O)[C@@H]1N)C(=O)O (stereo partly shown) [muramic acid, Muramic acid]",stimulation of BCEC proliferation by other hexosamines and structurally related molecules,[2],None of these molecules stimulated BCEC proliferation
CC(=O)N[C@H]1[C@H]([C@H](O)[C@H](O)CO)OC(O)(C(=O)O)C[C@@H]1O (stereo partly shown) [N-Acetylneuraminic acid],stimulation of BCEC proliferation by other hexosamines and structurally related molecules,[2],None of these molecules stimulated BCEC proliferation
"N[C@H]1C(O)O[C@H](CO)[C@H](O)[C@@H]1O (stereo partly drawn) [galactosamine, D-(+)-Galactosamine]",stimulation of BCEC proliferation by other hexosamines and structurally related molecules,[2],none of these hexosamines had significant stimulatory effects
"bFGF: bFGF purchased from R&D systems, positive control",increase in density of retinal vessels vs PBS group,retinal vasculature,about 35%
"N[C@H]1C(O)O[C@H](CO)[C@@H](O)[C@@H]1O (stereo partly drawn) [glucosamine, D-(+)-Glucosamine]",stimulation of BCEC proliferation by other hexosamines and structurally related molecules,[2],none of these hexosamines had significant stimulatory effects
"O=C(O)CCCc1ccccc1 [4-PBA, 4-phenylbutyric acid]",reversal of ManN activity on BCEC proliferation by chaperone,"[2]; pre-treating with 1 mM 4-PBA for 4 hours, absence or presence of VEGF",effectively reverse the bell-shaped activity of ManN on BCEC proliferation
same,effect of chaperone on ManN/VEGF additivity and ManN toxicity,"[2]; pre-treatment with 1 mM 4-PBA for 8 hours, FIG. 5D",abrogated additive effects of 40 μM ManN and 5 ng/ml VEGF and protected cells from toxic effect induced by 2 mM ManN
same,prevention of CHOP induction by ManN,"Bip, CHOP, ATF-6; 2 mM 4-PBA or 500 µM TUDCA, ManN at 400 μM and 5 mM",could prevent the induction of CHOP expression
same,restoration of ATF-6 expression,"Bip, CHOP, ATF-6",restore the expression of ATF-6
"O[C@H]1[C@H](O)[C@@H](O)CN2CC[C@H](O)[C@H]12 [Cas, Castanospermine]",BCEC proliferation by glycosylation inhibitors,"[2]; 0.01 to 100 μM, 3 days, absence or presence of 5 ng/ml VEGF",stimulated in a dose-dependent fashion
same,gap closing in BCEC scratch assay by glycosylation inhibitors,[3],significant activity
same,activation of ERK and AKT in BCECs by glycosylation inhibitors,[1]; FIG. 7E,less obvious; also recorded: did not activate ERK
same,activation of the JNK pathway by glycosylation inhibitors,JNK/c-jun,able to activate the JNK pathway
same,Bip expression by glycosylation inhibitors,"Bip, CHOP, ATF-6; media without growth factors for 24 hours",dose-dependent induction of Bip expression
same,activation of ERK and AKT in human ECs by glycosylation inhibitors,ERK and AKT,less obvious
"C[C@H](CCC(=O)NCCS(=O)(=O)O)[C@H]1CC[C@H]2[C@@H]3[C@@H](O)C[C@@H]4C[C@H](O)CC[C@]4(C)[C@H]3CC[C@]12C [TUDCA, tauroursodeoxycholic acid]",restoration of ATF-6 expression,"Bip, CHOP, ATF-6",much weaker
